Experimental findings from patent publication US7776892B2, “Fungicidal composition comprising a pyridylethylbenzamide derivative and a compound capable of inhibiting the spores germination or mycelium growth by acting on different metabolic routes” (Bayer Cropscience S.A., priority 2004, dated 2010) are described below.

Holding throughout (type): in vivo
Test [1] concerns Sphaerotheca fuliginea. Description: Example 11: efficacy against Sphaerotheca fuliginea on gherkin plants, Compound 1 and tolylfluanid. The settings on record: Podosphaera fuliginea, 504 h, grading 21 days after contamination. How it is done:
(§1) The formulated compounds are diluted with water to obtain the desired active material concentration.
Gherkin plants (Vert petit de Paris variety) in starter cups, sown on a 50/50 peat soil-pozzolana substrate and grown at 20° C./23° C., are treated at the 2-leaves stage by spraying with the aqueous suspension described above. Plants, used as controls, are treated with an aqueous solution not containing the active material.
After 24 hours, the plants are contaminated by spraying them with an aqueous suspension of Sphaerotheca fuliginea spores (100,000 spores per ml). The spores are collected from a contaminated plants The contaminated gerkhin plants are incubated at about 20° C./25° C. and at 60/70% relative humidity.
(§2) Grading (% of efficacy) is carried out 21 days after the contamination, in comparison with the control plants.

Test [2] has as its system Botrytis cinerea. Description: Example 9: efficacy against Botrytis cinerea on gherkin plants, Compound 1 and propamocarb-HCl. The settings on record: grading 5 to 7 days after contamination. The method, then:
(§3) Gherkin plants (Petit vert de Paris variety) in starter cups, sown on a 50/50 peat soil-pozzolana substrate and grown at 18-20° C., are treated at the cotyledon Z11 stage by spraying with the aqueous suspension described above.
(§4) After 24 hours, the plants are contaminated by depositing drops of an aqueous suspension of Botrytis cinerea spores (150,000 spores per ml) on upper surface of the leaves. The spores are collected from a 15-day-old culture and are suspended in a nutrient solution composed of: • 20 g/L of gelatine • 50 g/L of cane sugar • 2 g/L of NH4NO3 • 1 g/L of KH2PO4
(§5) The contaminated gherkin plants are settled for 5/7 days in a climatic room at 15-11° C. (day/night) and at 80% relative humidity. Grading (% of efficacy) is carried out 5 to 7 days after the contamination, in comparison with the control plants.

Test [3] deals with Botrytis cinerea. Kind of test: Example 10: efficacy against Botrytis cinerea on gherkin plants, Compound 1 and fosetyl-Al. The following applies: grading 5 to 7 days after contamination. How it is done: as §1
(§6) Gherkin plants (Petit vert de Paris variety) in starter cups, sown on a 50/50 peat soil-pozzolana substrate and grown at 18-20° C., are treated at the cotyledon Z11 stage by spraying with the aqueous suspension described above. Plants, used as controls, are treated with an aqueous solution not containing the active material.
as §4, §5

The subject of test [4] is Botrytis cinerea. Description: Example 2: efficacy against Botrytis cinerea on gherkin plants, Compound 1 and propineb. The following applies: grading 5 to 7 days after contamination. The method, then: as §3, §4, §5
In test [5] the test system is Botrytis cinerea. Kind of test: Example 1: efficacy against Botrytis cinerea on gherkin plants, Compound 1 and mancozeb. The settings on record: grading 5 to 7 days after contamination. The method, then: as §3, §4, §5
Test [6] concerns Sphaerotheca fuliginea. Kind of test: Example 13: efficacy against Sphaerotheca fuliginea on gherkin plants, Compound 1 and iprovalicarb. The following applies: grading 21 days after contamination. How it is done:
Gherkin plants (Vert petit de Paris variety) in starter cups, sown on a 50/50 peat soil-pozzolana substrate and grown at 20° C./23° C., are treated at the 2-leaves stage by spraying with the aqueous suspension described above.
After 24 hours, the plants are contaminated by spraying them with an aqueous suspension of Sphaerotheca fuliginea spores (100 000 spores per ml). The spores are collected from a contaminated plants The contaminated gerkhin plants are incubated at about 20° C./25° C. and at 60/70% relative humidity.
as §2

A further test has as its system Puccinia recondita. Kind of test: Example 3: efficacy against Puccinia recondita on wheat plants, Compound 1 and captan. The settings on record: 240 h, grading 10 days after contamination. How it is done: (§7) The active ingredients tested are prepared by potter homogenisation in a mixture of acetone/tween/water. This suspension is then diluted with water to obtain the desired active material concentration.
Wheat plants (Scipion variety) in starter cups, sown on 50/50 peat soil-pozzolana substrate and grown at 12° C., are treated at the 1-leaf stage (10 cm tall) by spraying with the aqueous suspension described above.
(§8) Plants, used as controls, are treated with an aqueous solution not containing the active material.
After 24 hours, the plants are contaminated by spraying the leaves with an aqueous suspension of Puccinia recondita spores (100,000 spores per ml). The spores are collected from a 10-day-old contaminated wheat and are suspended in water containing 2.5 ml/l of tween 80 10%. The contaminated wheat plants are incubated for 24 hours at 20° C. and at 100% relative humidity, and then for 10 days at 20° C. and at 70% relative humidity. Grading is carried out 10 days after the contamination, in comparison with the control plants.

The subject of test [7] is Botrytis cinerea. Description: Example 6: efficacy against Botrytis cinerea on gherkin plants, Compound 1 and fludioxonil. How it is done:
as §7, §6, §4, §5

The subject of test [8] is Botrytis cinerea. Description: Example 4: efficacy against Botrytis cinerea on gherkin plants, Compound 1 and folpet. The following applies: grading 5 to 7 days after contamination. How it is done:
(§9) The formulated compounds are diluted with water to obtain the desired active material concentration. Gherkin plants (Petit vert de Paris variety) in starter cups, sown on a 50/50 peat soil-pozzolana substrate and grown at 18-20° C., are treated at the cotyledon Z11 stage by spraying with the aqueous suspension described above. Plants, used as controls, are treated with an aqueous solution not containing the active material.
as §4, §5

The test system of test [9] is Erysiphe graminis f. sp. tritici. Kind of test: Example 14: efficacy against Erysiphe graminis f. sp. tritici on wheat plants, Compound 1 and chlorothalonil. The settings on record: Blumeria graminis, grading 7 to 14 days after contamination. How it is done:
The formulated compounds are diluted with water to obtain the desired active material concentration
Wheat plants (Audace variety) in starter cups, sown on 50/50 peat soil-pozzolana substrate and grown at 12° C., are treated at the 1-leaf stage (10 cm tall) by spraying with the aqueous suspension described above.
as §8
After 24 hours, the plants are contaminated by dusting them with Erysiphe graminis f. sp. tritici spores, the dusting being carried out using diseased plants.
Grading is carried out 7 to 14 days after the contamination, in comparison with the control plants.

The test system of the next test is Peronospora parasitica. Kind of test: Example 12: efficacy against Peronospora parasitica on cabbage plants, Compound 1 and Compound A. The following applies: Hyaloperonospora parasitica, 120 h, grading 5 days after contamination. The method, then: The active ingredient tested is prepared by potter homogenisation in a concentrated suspension type formulation at 100 g/l. This suspension is then diluted with water to obtain the desired active material concentration.
Cabbage plants (Eminence variety) in starter cups, sown on a 50/50 peat soil-pozzolana substrate and grown at 18-20° C., are treated at the cotyledon stage by spraying with the aqueous suspension described above.
as §8
After 24 hours, the plants are contaminated by spraying them with an aqueous suspension of Peronospora parasitica spores (50,000 spores per ml). The spores are collected from infected plant.
The contaminated cabbage plants are incubated for 5 days at 20° C., under a humid atmosphere.
Grading is carried out 5 days after the contamination, in comparison with the control plants.

Test [10] deals with Botrytis cinerea. Kind of test: Example 8: efficacy against Botrytis cinerea on gherkin plants, Compound 1 and metalaxyl-M. The settings on record: grading 5 to 7 days after contamination. The method, then: as §7, §6, §4, §5
Test [11] relates to Botrytis cinerea. Description: Example 7: efficacy against Botrytis cinerea on gherkin plants, Compound 1 and benalaxyl. The following applies: grading 5 to 7 days after contamination. How it is done:
as §7, §6, §4, §5

For test [12], the system named is Botrytis cinerea. Description: Example 5: efficacy against Botrytis cinerea on gherkin plants, Compound 1 and iprodione. The settings on record: grading 5 to 7 days after contamination. The method, then:
as §9, §4, §5

Counter-ions that a name gives are not always drawn.

`Cc1ccc(N(SC(F)(Cl)Cl)S(=O)(=O)N(C)C)cc1` [Tolylfluanid, tolylfluanid] registered an Emax at 12.3 ppm in the test on Sphaerotheca fuliginea [1] (12.3 ppm) of 0%. In the test on Sphaerotheca fuliginea [1] (37 ppm), this molecule yielded an Emax at 37 ppm of 50%.
`CCCOC(=O)NCCCN(C)C` [Popamocarb-HCl, propamocarb-HCl, reference compound] gave an Emax at 1000 ppm with Botrytis cinerea [2] (1000 ppm) of 0%.
In the case of `O=C(NCCc1ncc(C(F)(F)F)cc1Cl)c1ccccc1C(F)(F)F` [Compound 1, N-{2-[3-chloro-5-(trifluoromethyl)-2-pyridinyl]ethyl}-2-trifluoromethylbenzamide], the Emax at 111 ppm is 70% in the test with Botrytis cinerea [2] (111 ppm); 70% with Botrytis cinerea [3] (Botrytis cinerea, 111 ppm); 87% in the test with Botrytis cinerea [4] (Botrytis cinerea, 111 ppm); 70% with Botrytis cinerea [5] (Botrytis cinerea, 111 ppm); 70% in the test with Botrytis cinerea [8] (111 ppm). The Emax at 4.1 ppm in the test on Sphaerotheca fuliginea [1] (4.1 ppm) was determined as 69%. Also, the Emax at 37 ppm with Botrytis cinerea [4] (Botrytis cinerea, 37 ppm) stood at 65%; with Botrytis cinerea [5] (Botrytis cinerea, 37 ppm) it was 50%; in the test with Botrytis cinerea [7] (37 ppm, gherkin plants, grading 5 to 7 days after contamination) it was 38%; in the test on Botrytis cinerea [8] (37 ppm), 50%; in the test on Botrytis cinerea [10] (Botrytis cinerea, 37 ppm), 45%; in the test with Botrytis cinerea [11] (37 ppm), 78%. Further, the Emax at 37 ppm in the test with Botrytis cinerea [12] was 0%. The Emax at 12.3 ppm worked out at 65% in the test on Sphaerotheca fuliginea [6] (Podosphaera fuliginea, 504 h, 12.3 ppm); 0% in the test on Botrytis cinerea [7] (12.3 ppm, gherkin plants, grading 5 to 7 days after contamination); 0% with Peronospora parasitica. Further, the Emax at 125 ppm with Puccinia recondita is 0%. Besides, the Emax at 250 ppm in the test on Puccinia recondita amounted to 10%. In [9], this molecule gave an Emax at 250 g/ha of 30%. In [9] (500 g/ha), this molecule yielded an Emax at 500 g/ha of 60%.
The molecule `O=C1c2ccccc2C(=O)N1SC(Cl)(Cl)Cl` [Folpet, folpet, reference compound] returned an Emax at 333 ppm in the test on Botrytis cinerea [8] (333 ppm) of 0%. The molecule also returned an Emax at 1000 ppm with Botrytis cinerea [8] (1000 ppm) of 0%.
Regarding `CC(C)NC(=O)N1CC(=O)N(c2cc(Cl)cc(Cl)c2)C1=O` [Iprodione, iprodione], the Emax at 37 ppm in the test on Botrytis cinerea [12] turned out to be 0%. The Emax at 111 ppm in the test with Botrytis cinerea [12] (111 ppm) was determined as 90%.
propineb [reference compound]: the “% Efficacy” value in the test with Botrytis cinerea [4] (3000 ppm) was found to be 0%.
`Cc1ccc(C(C)NC(=O)[C@@H](NC(=O)OC(C)C)C(C)C)cc1` (stereo partly drawn) [Iprovalicarb, iprovalicarb, reference compound]: in the test on Sphaerotheca fuliginea [6] (111 ppm), the “% Efficacy” value amounted to 50%.
As to `N#Cc1c[nH]cc1-c1cccc2c1OC(F)(F)O2` [Fludioxonil, fludioxonil, reference compound], the Emax at 4.1 ppm with Botrytis cinerea [7] (read-out: % Efficacy) is 0%.
For the molecule `O=C1C2CC=CCC2C(=O)N1SC(Cl)(Cl)Cl` (stereo not drawn) [Captan, captan], in the test with Puccinia recondita, the Emax at 125 ppm came out at 0% and the Emax at 250 ppm is 0%. For the same molecule, the Emax at 500 ppm in the test on Puccinia recondita (500 ppm) is 10%.
For the molecule `COCC(=O)N(c1c(C)cccc1C)[C@H](C)C(=O)OC` [Metalaxyl-M, metalaxyl-M, reference compound], in the test on Botrytis cinerea [10] (111 ppm), the “% Efficacy” value is 0%.
On to `CCO[PH](=O)O` [Fosetyl-Al, fosetyl-Al, reference compound], for which, in the test on Botrytis cinerea [3] (1000 ppm), the “% Efficacy” value is reported as 0%.
`COC(=O)C(C)N(C(=O)Cc1ccccc1)c1c(C)cccc1C` (stereo not drawn) [Benalaxyl, benalaxyl, reference compound] displayed an Emax at 111 ppm with Botrytis cinerea [11] (111 ppm) of 7%.
The molecule `O=C(NCc1ncc(C(F)(F)F)cc1Cl)c1c(Cl)cccc1Cl` [Compound A, 2,6-dichloro-N-{[3-chloro-5-(tri-fluoromethyl)-2-pyridinyl]methyl}benzamide, reference compound] came in with an Emax at 12.3 ppm with Peronospora parasitica of 40%.
In test [9], `N#Cc1c(Cl)c(Cl)c(Cl)c(C#N)c1Cl` [Chlorothalonil, chlorothalonil, reference compound] returned an Emax at 250 g/ha of 0%.
For mancozeb [reference compound], the “% Efficacy” value in the test on Botrytis cinerea [5] (1000 ppm) was 0%.
